Values quoted from earlier work, collected in patent US20160300010A1, “METHOD AND SYSTEM FOR PREDICTING SELECTIVE CANCER DRUG TARGETS” (RAMOT AT TEL-AVIV UNIVERSITY LTD., priority 2011, published 2016).

Tested on: human cancer cells
Conditions: previously shown

NC(Cn1ccc(=O)c(O)c1)C(=O)O (stereo not shown) [Mimosine]
effect on proliferation of human cancer cells: inhibit proliferation of human cancer cells
